Article PMC6553640 (Science signaling, 2018)

Molecular target: T1, TRIB1 (Homo sapiens, UniProt Q96RU8)
T1 sequence (Q96RU8 84-372): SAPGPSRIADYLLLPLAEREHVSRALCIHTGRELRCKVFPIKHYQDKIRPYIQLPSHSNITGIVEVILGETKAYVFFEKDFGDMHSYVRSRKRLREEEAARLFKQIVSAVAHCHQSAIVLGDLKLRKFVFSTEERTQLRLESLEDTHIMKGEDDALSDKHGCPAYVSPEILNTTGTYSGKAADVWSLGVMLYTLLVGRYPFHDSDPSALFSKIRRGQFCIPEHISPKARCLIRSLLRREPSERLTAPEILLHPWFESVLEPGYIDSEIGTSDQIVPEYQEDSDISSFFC
Assay: DSF destabilization
Type: binding

SMILES: COc1cccc(COc2cc(-n3cnc4ccccc43)sc2C(N)=O)c1 [GW804482X]
- DSF destabilization: although like TRIB2, destabilization was evident in the presence of GW804482X (fig. S3C)
